Data: ChEMBL document CHEMBL1201862, “PubChem BioAssay data set” (2004)
Calls of active or inactive are those of the source.

Tests used:
[1] = viability loss in HepG2 hepatoma cells – cell-based, ATP luminescence, cherry-pick, activator set 2, cytotoxicity control, dose response (AID 1053143); type: functional
[2] = cells; type: functional, cell-based
[3] = cells; type: functional, cell-based; remark: listed apart in the source
[4] = molecular target: Cytochrome P450 2C19 (Homo sapiens, UniProt P33261); assay: Cytochrome panel assay with activity outcomes. Panel member name: p450-cyp2c19 Compounds with AC50 equal or less than 10 uM are considered active; type: functional; settings: read-out: AC50
[5] = molecular target: Cytochrome P450 2D6 (Homo sapiens, UniProt P10635);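 further: CYP2D6 member of a cytochrome P450 panel assay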
[6] = molecular target: T1, Cytochrome P450 1A2 (Homo sapiens, UniProt P05177);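 further: PubChem cytochrome P450 panel assay, CYP1A2 panel member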
T1 sequence (P05177 whole entry): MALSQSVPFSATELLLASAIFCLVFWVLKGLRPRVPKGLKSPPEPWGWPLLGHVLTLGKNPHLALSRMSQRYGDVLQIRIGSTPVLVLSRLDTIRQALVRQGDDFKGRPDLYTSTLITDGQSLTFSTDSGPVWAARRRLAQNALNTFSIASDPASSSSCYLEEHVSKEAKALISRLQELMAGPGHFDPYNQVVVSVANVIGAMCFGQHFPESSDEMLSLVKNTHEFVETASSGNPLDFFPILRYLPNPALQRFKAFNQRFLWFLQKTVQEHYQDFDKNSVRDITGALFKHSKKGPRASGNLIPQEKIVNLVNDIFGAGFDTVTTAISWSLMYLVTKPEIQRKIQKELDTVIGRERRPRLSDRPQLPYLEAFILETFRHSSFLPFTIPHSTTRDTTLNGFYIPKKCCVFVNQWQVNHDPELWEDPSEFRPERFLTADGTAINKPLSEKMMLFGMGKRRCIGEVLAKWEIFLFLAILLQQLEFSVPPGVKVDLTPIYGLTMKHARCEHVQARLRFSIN

[7] = molecular target: Cytochrome P450 2C9 (Homo sapiens, UniProt P11712)
[8] = system: Vero; assay: cells; type: functional, cell-based; settings: Chlorocebus sabaeus
[9] = system: Vero; assay: cells; type: functional; settings: Chlorocebus sabaeus
[10] = A549 cell cytotoxicity, dose response, cytotoxicity control, plate reader, cherry-pick, antagonist series (AID 743412); type: functional, cell-based
[11] = toxicity toward HepG2 liver cells – cell-based, plate reader, cherry-pick, antagonist series, cytotoxicity control, dose response (AID 743416); type: functional
[12] = blockers of bursicon-stimulated LGR2 cAMP reporter – cell-based, HEK293, CRE-luciferase reporter, cherry pick, set 2, dose response (AID 743343); type: functional;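 further: transfected cells were stimulated with diluted bursicon conditioned medium after compound addition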
[13] = blockade of melanocortin 4 receptor signaling – cell-based, plate reader, cherry pick, counter-screen for LGR2 antagonist project, dose response (AID 743444); type: functional;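 further: transfected HEK 293 cells stimulated with alpha-MSH peptide; potency of inhibitors of the alpha-MSH evoked signal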
[14] = viability loss in HEK293 cells – cell-based, plate reader, cherry-picked samples, cytotoxicity control, dose response (AID 743446); type: functional
[15] = molecular target: FAD-linked sulfhydryl oxidase ALR (Homo sapiens, UniProt P55789); assay: ALR-catalysed DTT oxidation blockers – biochemical, H2O2 detection, luminescence, cherry-pick, dose response (AID 493248)
[16] = molecular target: Genome polyprotein (dengue virus type 2, UniProt P29990); assay: flavivirus cap methylation enzyme inhibition – biochemical, confirmation dose response, primary screen (AID 588689); type: functional
[17] = molecular target: T2, Protein skinhead-1 (Caenorhabditis elegans, UniProt P34707); type: functional
T2 sequence (P34707 whole entry): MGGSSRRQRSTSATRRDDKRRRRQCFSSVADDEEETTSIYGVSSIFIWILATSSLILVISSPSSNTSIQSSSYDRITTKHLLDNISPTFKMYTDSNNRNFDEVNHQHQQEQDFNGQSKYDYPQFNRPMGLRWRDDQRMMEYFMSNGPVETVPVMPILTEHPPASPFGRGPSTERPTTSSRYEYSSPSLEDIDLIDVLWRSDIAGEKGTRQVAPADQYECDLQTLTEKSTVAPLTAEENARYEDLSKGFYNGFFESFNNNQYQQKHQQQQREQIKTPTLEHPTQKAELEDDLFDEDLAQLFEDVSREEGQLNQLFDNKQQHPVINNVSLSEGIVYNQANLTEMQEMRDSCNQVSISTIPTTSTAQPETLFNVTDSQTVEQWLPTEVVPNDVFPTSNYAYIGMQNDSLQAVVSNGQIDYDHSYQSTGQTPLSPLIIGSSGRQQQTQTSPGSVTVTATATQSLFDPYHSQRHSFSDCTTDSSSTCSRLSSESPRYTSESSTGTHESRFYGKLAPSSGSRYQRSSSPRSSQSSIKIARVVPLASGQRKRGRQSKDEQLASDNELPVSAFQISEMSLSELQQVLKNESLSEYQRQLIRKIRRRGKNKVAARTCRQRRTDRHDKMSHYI

[18] = molecular target: T3, Fatty acid synthase (Homo sapiens, UniProt P49327); assay: inhibition of human FAS-TE enzyme activity – biochemical, endpoint fluorescence intensity, uHTS hits, dose response (AID 624327); type: functional;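 further: fluorescence from hydrolysis of an O-methyl fluorescein acyl ester substrate by the enzyme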
[19] = molecular target: T3, Fatty acid synthase; assay: inhibition of human FAS-TE enzyme activity – biochemical, kinetic fluorescence intensity, dose response (AID 624326); type: functional;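 further: rate of fluorescence rise from hydrolysis of a fluorogenic O-methyl fluorescein ester substrate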
[20] = blockers of HIV-1 envelope-mediated cell-cell fusion – cherry-pick, dose response (AID 652057); type: functional, cell-based
[21] = blockers of HIV-1 ZM109 envelope-driven cell-cell fusion – HeLa effector, CEM target cells, luciferase, cherry-pick, dose response (AID 652058); type: functional, cell-based;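 further: luciferase signal from HIV-1 Env mediated cell-cell fusion of effector and target cells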
[22] = off-target signal loss in HeLa-CEM21 co-culture – HeLa F-luc CTL cells, cherry-picked, counter-screen for HIV-1 Env fusion inhibitor project, dose response (AID 652040); type: functional, cell-based;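 further: potency for signal decrease marking cytotoxic or nonspecific inhibition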
[23] = HIV-1 AD8 envelope cell-cell fusion blockers – cherry-pick, dose response (AID 652062); type: functional, cell-based;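 further: luciferase signal from cell-cell fusion driven by HIV-1 clade B AD8 Env; potency is for inhibitors of fusion seen as a drop in luminescence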
[24] = microbe, parasite or virus in culture; type: functional; settings: Mycobacterium tuberculosis
[25] = reduction of Shn3 3'UTR-driven luciferase in osteoblasts – cell-based, Clone20 osteoblasts, firefly luciferase, cherry-picked, dose response (AID 624132); type: functional;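 further: firefly luciferase luminescence from reporter carrying the Shn3 3'UTR in osteoblasts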
[26] = loss of viability in HepG2 cells – cell-based, CellTiter-Glo, cherry-picked, cytotoxicity control for Shn3 inhibitor project, dose response (AID 624134); type: functional
[27] = non-specific 3'UTR reporter inhibition in Clone20-Shn3RL – cell-based, Renilla luciferase, cherry-picked, counter-screen for Shn3 inhibitor project, dose response (AID 624133); type: functional
[28] = general mammalian cell viability loss – activator set, cherry-pick, cytotoxicity control for miR-122 modulator project, dose response (AID 720690); type: functional, cell-based;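 further: HEK293T human cells scored for general mammalian cytotoxicity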
[29] = molecular target: T4, Leucine aminopeptidase (Plasmodium falciparum 3D7, UniProt Q8IL11); assay: P. falciparum M17LAP inhibitors, primary screen, biochemical, fluorogenic H-Leu-NHMec substrate, 1536-well (AID 1619); type: functional
T4 sequence (Q8IL11 whole entry): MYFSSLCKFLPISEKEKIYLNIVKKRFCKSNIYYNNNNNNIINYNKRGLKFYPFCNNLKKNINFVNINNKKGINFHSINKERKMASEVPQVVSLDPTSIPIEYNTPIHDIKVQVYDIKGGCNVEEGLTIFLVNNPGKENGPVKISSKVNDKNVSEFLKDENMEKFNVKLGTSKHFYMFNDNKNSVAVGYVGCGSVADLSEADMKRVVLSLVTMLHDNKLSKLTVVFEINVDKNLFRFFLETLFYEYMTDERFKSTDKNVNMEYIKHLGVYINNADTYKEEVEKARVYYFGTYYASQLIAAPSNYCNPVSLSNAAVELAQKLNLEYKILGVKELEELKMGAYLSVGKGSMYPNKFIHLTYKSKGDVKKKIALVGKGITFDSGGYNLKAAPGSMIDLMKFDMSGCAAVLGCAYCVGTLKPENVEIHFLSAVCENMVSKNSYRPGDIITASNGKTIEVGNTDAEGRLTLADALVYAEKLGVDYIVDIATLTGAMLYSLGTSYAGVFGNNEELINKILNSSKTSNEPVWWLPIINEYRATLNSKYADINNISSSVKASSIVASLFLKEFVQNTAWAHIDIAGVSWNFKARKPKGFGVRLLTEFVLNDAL

[30] = molecular target: Induced myeloid leukemia cell differentiation protein Mcl-1 (Homo sapiens, UniProt Q07820); type: functional
[31] = molecular target: T5, Carboxy-terminal domain RNA polymerase II polypeptide A small phosphatase 1 (Homo sapiens, UniProt Q9GZU7); assay: CTDSP1 inhibitors, concentration-response, biochemical, absorbance readout, ultra-high-throughput screen actives (AID 540297); type: functional
T5 sequence (Q9GZU7 whole entry): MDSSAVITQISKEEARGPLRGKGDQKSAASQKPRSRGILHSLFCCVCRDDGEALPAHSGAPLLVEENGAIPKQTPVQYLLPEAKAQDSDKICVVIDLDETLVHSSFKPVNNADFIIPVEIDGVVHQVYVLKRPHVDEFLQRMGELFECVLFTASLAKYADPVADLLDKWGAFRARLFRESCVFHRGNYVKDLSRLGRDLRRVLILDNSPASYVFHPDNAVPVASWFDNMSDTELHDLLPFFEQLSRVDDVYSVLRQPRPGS

[32] = molecular target: T6, Heat shock factor protein 1 (Mus musculus, UniProt P38532); assay: decrease of HSF1-responsive luciferase luminescence – cell-based, NIH3T3, dose retest, confirmation (AID 2382); type: functional;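 further: NIH3T3 fibroblasts with HSF1-driven luciferase reporter stressed by proteasome inhibitor MG132; luminescence from HSF1-driven luciferase expression after 8 hours of MG132 stress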
T6 sequence (P38532 whole entry): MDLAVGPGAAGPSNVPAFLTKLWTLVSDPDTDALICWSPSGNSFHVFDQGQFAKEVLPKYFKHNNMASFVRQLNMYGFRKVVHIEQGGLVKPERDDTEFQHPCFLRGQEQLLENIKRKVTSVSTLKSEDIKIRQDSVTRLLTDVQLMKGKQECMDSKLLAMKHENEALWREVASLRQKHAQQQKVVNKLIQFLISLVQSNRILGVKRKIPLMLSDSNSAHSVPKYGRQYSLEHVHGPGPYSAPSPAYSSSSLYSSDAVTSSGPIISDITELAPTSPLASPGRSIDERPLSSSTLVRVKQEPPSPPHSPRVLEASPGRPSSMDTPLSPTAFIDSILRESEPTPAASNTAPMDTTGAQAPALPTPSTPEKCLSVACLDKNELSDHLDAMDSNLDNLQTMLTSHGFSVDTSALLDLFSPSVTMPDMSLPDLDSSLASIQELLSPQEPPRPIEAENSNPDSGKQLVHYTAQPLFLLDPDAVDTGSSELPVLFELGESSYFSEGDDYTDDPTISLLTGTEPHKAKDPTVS

[33] = molecular target: Luciferin 4-monooxygenase (Photinus pyralis, UniProt P08659); assay: inhibition of purified Photinus pyralis luciferase – biochemical, luminescence, dose response (AID 1891)
[34] = Luminescence Cell-Based Dose Confirmation HTS to Identify Inhibitors of Platelet Dense Granule Release. [Related pubchem assays: 1663 (Primary HTS), 1678 (Summary of Project)]; type: functional

T3 sequence (P49327 whole entry): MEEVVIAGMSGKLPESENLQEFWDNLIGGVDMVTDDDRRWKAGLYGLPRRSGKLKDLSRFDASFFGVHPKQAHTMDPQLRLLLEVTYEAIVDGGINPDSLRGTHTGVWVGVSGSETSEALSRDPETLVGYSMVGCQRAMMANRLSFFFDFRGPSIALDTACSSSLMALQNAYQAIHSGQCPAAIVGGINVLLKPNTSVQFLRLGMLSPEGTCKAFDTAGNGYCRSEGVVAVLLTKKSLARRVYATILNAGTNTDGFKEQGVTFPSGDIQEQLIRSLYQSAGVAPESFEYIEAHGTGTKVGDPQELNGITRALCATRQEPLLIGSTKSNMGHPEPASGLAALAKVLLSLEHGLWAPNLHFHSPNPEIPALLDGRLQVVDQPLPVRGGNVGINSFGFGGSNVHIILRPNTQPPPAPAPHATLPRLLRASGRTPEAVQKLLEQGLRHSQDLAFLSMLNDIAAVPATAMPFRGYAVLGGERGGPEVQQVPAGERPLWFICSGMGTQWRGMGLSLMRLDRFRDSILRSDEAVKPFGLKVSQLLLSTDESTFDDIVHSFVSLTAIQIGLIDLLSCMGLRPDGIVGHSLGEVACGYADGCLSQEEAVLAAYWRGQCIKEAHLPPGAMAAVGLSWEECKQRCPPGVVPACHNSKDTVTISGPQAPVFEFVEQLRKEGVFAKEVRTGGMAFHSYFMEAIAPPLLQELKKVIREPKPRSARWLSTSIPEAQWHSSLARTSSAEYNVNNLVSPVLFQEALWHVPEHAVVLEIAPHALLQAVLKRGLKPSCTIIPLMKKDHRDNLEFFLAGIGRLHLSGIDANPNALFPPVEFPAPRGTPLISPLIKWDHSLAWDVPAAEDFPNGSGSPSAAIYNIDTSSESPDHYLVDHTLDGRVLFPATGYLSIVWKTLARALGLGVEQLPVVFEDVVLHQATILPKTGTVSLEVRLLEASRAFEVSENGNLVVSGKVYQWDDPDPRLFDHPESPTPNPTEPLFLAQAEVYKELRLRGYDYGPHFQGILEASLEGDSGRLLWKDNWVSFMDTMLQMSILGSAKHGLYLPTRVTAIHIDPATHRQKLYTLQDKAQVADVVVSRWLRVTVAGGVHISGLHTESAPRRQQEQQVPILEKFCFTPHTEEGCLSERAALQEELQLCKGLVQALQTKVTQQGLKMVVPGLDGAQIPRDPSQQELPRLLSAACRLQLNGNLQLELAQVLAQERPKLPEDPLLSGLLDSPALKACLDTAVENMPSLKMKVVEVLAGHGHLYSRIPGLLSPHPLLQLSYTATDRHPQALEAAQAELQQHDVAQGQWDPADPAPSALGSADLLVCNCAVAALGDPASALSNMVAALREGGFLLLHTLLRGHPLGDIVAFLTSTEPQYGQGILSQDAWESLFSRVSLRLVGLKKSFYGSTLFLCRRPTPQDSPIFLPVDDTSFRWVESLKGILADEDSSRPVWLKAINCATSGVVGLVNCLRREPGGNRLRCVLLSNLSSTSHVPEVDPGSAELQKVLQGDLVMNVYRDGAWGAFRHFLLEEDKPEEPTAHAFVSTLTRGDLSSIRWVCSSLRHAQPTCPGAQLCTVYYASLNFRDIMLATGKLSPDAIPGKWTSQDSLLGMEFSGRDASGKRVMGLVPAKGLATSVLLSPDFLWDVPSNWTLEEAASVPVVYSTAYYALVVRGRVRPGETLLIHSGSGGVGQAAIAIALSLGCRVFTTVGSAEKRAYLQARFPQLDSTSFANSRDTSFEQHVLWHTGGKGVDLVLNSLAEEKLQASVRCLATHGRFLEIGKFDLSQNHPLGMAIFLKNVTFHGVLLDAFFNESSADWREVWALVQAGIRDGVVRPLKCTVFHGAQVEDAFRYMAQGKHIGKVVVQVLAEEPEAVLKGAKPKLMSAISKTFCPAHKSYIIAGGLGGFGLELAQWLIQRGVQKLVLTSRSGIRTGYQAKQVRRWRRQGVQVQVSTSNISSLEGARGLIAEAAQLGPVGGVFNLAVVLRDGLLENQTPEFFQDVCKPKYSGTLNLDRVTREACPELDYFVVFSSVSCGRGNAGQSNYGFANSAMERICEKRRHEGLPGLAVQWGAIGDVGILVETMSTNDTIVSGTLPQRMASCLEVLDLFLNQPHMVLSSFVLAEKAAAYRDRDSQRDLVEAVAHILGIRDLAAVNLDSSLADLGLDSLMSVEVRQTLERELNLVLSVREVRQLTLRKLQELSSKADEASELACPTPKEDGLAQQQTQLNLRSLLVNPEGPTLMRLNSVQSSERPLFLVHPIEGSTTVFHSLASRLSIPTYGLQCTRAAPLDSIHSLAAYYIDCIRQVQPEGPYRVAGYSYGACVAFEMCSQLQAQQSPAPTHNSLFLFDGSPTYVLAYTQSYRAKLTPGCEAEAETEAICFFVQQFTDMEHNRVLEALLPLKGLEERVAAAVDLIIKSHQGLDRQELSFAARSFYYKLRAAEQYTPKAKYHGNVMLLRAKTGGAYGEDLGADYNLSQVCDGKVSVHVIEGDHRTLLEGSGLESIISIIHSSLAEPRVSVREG
Sequence of Induced myeloid leukemia cell differentiation protein Mcl-1 (Q07820 whole entry, the tested form may be a part): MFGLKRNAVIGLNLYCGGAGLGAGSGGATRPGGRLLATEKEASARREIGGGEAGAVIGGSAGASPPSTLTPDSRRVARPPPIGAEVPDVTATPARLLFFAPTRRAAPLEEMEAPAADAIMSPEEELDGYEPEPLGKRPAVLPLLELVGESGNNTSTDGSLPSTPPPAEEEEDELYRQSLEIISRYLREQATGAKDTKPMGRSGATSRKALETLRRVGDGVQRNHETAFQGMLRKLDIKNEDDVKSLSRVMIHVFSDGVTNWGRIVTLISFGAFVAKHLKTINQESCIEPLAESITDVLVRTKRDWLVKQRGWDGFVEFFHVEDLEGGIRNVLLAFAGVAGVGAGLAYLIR
Sequence of Cytochrome P450 2D6 (P10635 whole entry): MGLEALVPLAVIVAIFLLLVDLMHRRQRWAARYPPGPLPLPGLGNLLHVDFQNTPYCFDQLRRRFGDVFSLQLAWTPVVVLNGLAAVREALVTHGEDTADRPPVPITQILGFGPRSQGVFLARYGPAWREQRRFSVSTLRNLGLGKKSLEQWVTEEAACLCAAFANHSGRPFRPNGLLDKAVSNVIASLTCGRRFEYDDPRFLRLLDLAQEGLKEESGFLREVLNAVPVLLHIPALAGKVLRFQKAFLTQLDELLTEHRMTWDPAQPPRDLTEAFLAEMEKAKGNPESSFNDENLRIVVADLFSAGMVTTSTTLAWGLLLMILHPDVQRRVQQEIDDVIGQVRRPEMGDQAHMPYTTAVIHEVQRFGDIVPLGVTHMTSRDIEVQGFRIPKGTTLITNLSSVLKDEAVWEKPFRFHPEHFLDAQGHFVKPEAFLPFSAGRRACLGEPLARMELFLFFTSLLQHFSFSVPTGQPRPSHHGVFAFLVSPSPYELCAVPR
Sequence of Cytochrome P450 2C9 (P11712 whole entry): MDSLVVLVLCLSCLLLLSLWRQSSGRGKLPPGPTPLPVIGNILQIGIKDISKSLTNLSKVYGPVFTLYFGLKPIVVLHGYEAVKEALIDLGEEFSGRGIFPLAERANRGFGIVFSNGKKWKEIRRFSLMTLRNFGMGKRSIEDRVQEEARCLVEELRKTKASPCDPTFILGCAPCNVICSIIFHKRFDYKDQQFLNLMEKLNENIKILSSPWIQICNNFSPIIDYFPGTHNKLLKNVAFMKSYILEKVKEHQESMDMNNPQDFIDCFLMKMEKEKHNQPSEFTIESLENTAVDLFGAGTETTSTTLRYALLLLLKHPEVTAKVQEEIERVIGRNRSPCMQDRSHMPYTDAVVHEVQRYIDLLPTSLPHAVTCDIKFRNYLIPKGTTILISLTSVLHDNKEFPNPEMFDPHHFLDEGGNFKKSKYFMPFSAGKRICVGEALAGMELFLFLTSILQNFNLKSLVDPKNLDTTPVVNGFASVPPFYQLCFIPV
Sequence of Cytochrome P450 2C19 (P33261 whole entry): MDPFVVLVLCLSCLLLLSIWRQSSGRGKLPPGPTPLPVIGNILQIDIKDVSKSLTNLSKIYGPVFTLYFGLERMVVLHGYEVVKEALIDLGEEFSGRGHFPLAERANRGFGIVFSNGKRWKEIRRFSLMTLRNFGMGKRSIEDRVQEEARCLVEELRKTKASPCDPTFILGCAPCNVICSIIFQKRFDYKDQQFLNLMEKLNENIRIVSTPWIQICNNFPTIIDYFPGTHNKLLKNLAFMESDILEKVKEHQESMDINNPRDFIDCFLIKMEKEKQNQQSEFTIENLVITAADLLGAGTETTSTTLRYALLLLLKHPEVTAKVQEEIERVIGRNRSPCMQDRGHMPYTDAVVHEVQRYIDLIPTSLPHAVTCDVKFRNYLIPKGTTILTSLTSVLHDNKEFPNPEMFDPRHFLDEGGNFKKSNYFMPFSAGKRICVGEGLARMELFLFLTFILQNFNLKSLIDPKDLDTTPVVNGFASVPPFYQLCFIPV
Sequence of FAD-linked sulfhydryl oxidase ALR (P55789 whole entry): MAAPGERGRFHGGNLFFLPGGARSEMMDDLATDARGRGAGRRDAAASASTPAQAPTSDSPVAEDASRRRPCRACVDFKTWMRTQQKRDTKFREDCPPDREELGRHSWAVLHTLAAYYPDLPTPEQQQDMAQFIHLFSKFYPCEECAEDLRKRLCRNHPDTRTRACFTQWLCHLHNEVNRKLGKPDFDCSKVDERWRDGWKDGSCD

SMILES: COc1cc(NC(=O)c2cccs2)ccc1NC(=O)c1ccco1
- AC50 [1]: 12 µM (active)

SMILES: O=C(Nc1ncccc1O)c1ccc2c(c1)OCO2
- EC50 [2]: 99.2 µM (active)
- EC50 [3]: 51.7 µM (active)
- AC50 [1]: 26 µM (active)

SMILES: COc1ccccc1/C=C/C=N/N1CCN(Cc2ccc(Cl)cc2)CC1.Cl
- AC50 [4]: 6.31 µM (inconclusive)
- AC50 [5]: 8.91 µM (inconclusive)
- AC50 [6]: 15.8 µM (inconclusive)
- AC50 [7]: inconclusive

SMILES: Cc1ccc(C(=O)C[n+]2ccccc2C)cc1[N+](=O)[O-]
- IC50 [8]: 5.84 µM (active)

SMILES: CCC1=C(CC2NCCc3ccccc32)CC2c3cc(OC)c(OC)cc3CCN2C1 (stereo not drawn)
- IC50 [8]: > 25 µM (active)
- CC50 [9]: 5.14 µM (active)
- AC50 [10]: 2.13 µM (active)
- AC50 [11]: 4.16 µM (active)
- AC50 [12]: 6.49 µM (active)
- AC50 [13]: 7.63 µM (active)
- AC50 [14]: 33.6 µM (active)

SMILES: O=C(CCN1C(=O)/C(=C/c2ccccc2Cl)SC1=S)Nc1ccccc1C(=O)O
- AC50 [15]: 2.46 µM (active)
- IC50 [16]: 77.7 µM (active)
- IC50 [17]: > 100 µM (inactive)
- IC50 [18]: 6.5 µM (active)
- IC50 [19]: 5.37 µM (active)

SMILES: CC(C)CN(C(=O)C(c1ccccc1)c1ccccc1)c1c(N)n(CC(C)C)c(=O)[nH]c1=O
- AC50 [20]: 1.62 µM (active)
- AC50 [21]: 0.619 µM (active)
- AC50 [22]: 1.72 µM (active)
- AC50 [23]: 1.91 µM (active)

SMILES: Oc1cc(Nc2ccccc2)cc2cccnc12
- CC50 [24]: 7.2 µM (active)
- AC50 [25]: 1.79 µM (active)
- AC50 [26]: 36 µM (active)
- AC50 [27]: 6.62 µM (active)

SMILES: COC(=O)c1c(C)oc(C)c1S(=O)(=O)NC(c1ccccc1)c1ccccc1
- AC50 [20]: 5.64 µM (active)
- AC50 [21]: 6.38 µM (active)
- AC50 [22]: 6.55 µM (active)
- AC50 [23]: 6.05 µM (active)

SMILES: COc1ccccc1NC(=O)Nc1nc(C(N)Cc2ccc(C(F)(F)F)cc2)cs1 (stereo not drawn)
- AC50 [25]: 10.3 µM (active)
- AC50 [26]: 25.1 µM (active)
- AC50 [27]: 24 µM (active)

SMILES: Cc1ccccc1-c1ccc([C@@H]2[C@@H](CO)N3CCCCN(C(=O)Nc4ccc(F)cc4)C[C@@H]23)cc1
- AC50 [28]: 31.1 µM (active)

SMILES: Cc1occc1C(=O)Nc1sc2c(c1C(N)=O)CCCCC2
- IC50 [29]: 54.6 µM (active)

SMILES: COc1ccc(C(CC(=O)N2CCCC2)c2c(OC)cc(OC)c3c(-c4ccccc4)cc(=O)oc23)cc1 (stereo not drawn)
- IC50 [30]: 4.62 µM (active)
- IC50 [31]: 9.82 µM (active)

SMILES: N=c1c2c(ncn1CCCO)Oc1c(ccc3ccccc13)C2c1ccccc1 (stereo not drawn)
- EC50 [32]: > 195 µM (not active)
- EC50 [33]: > 112 µM (not active)
- EC50 [34]: > 112 µM (not active)
- CC50 [9]: 15.4 µM (active)
- AC50 [1]: 26 µM (active)

SMILES: CN(C)C1=NC[C@H](Cc2ccccc2)N1CCCC1CCCC1
- AC50 [25]: 2.63 µM (active)
- AC50 [26]: > 70 µM (inactive)
- AC50 [27]: 2.5 µM (active)
